From patent publication US20140336219A2, “Pharmaceutical Compositions and Administrations Thereof” (Vertex Pharmaceuticals Incorporated, priority 2011, published 2014)

Target: T1, ΔF508-CFTR (Homo sapiens, UniProt P13569, DEL508-508)
T1 construct: expressed in transfected cells
Assay: Membrane potential optical assay for ΔF508-CFTR potentiation
Type: cell-based
Conditions: NIH 3T3 cells
Source text: The assay utilizes fluorescent voltage sensing dyes to measure changes in membrane potential using a fluorescent plate reader (e.g., FLIPR III, Molecular Devices, Inc.) as a readout for increase in functional ΔF508-CFTR in NIH 3T3 cells. The driving force for the response is the creation of a chloride ion gradient in conjunction with channel activation by a single liquid addition step after the cells have previously been treated with compounds and subsequently loaded with a voltage sensing dye. To identify potentiators of ΔF508-CFTR, a double-addition HTS assay format was developed. This HTS assay utilizes fluorescent voltage sensing dyes to measure changes in membrane potential on the FLIPR III as a measurement for increase in gating (conductance) of ΔF508 CFTR in temperature-corrected ΔF508 CFTR NIH 3T3 cells. The driving force for the response is a Cl^− ion gradient in conjunction with channel activation with forskolin in a single liquid addition step using a fluorescent plate reader such as FLIPR III after the cells have previously been treated with potentiator compounds (or DMSO vehicle control) and subsequently loaded with a redistribution dye. Bath Solution #1: (in mM) NaCl 160, KCl 4.5, CaCl2 2, MgCl2 1, HEPES 10, pH 7.4 with NaOH. Chloride-free bath solution: Chloride salts in Bath Solution #1 (above) are substituted with gluconate salts. […]

T1 sequence (P13569 with tags, fused parts or gaps DEL508-508): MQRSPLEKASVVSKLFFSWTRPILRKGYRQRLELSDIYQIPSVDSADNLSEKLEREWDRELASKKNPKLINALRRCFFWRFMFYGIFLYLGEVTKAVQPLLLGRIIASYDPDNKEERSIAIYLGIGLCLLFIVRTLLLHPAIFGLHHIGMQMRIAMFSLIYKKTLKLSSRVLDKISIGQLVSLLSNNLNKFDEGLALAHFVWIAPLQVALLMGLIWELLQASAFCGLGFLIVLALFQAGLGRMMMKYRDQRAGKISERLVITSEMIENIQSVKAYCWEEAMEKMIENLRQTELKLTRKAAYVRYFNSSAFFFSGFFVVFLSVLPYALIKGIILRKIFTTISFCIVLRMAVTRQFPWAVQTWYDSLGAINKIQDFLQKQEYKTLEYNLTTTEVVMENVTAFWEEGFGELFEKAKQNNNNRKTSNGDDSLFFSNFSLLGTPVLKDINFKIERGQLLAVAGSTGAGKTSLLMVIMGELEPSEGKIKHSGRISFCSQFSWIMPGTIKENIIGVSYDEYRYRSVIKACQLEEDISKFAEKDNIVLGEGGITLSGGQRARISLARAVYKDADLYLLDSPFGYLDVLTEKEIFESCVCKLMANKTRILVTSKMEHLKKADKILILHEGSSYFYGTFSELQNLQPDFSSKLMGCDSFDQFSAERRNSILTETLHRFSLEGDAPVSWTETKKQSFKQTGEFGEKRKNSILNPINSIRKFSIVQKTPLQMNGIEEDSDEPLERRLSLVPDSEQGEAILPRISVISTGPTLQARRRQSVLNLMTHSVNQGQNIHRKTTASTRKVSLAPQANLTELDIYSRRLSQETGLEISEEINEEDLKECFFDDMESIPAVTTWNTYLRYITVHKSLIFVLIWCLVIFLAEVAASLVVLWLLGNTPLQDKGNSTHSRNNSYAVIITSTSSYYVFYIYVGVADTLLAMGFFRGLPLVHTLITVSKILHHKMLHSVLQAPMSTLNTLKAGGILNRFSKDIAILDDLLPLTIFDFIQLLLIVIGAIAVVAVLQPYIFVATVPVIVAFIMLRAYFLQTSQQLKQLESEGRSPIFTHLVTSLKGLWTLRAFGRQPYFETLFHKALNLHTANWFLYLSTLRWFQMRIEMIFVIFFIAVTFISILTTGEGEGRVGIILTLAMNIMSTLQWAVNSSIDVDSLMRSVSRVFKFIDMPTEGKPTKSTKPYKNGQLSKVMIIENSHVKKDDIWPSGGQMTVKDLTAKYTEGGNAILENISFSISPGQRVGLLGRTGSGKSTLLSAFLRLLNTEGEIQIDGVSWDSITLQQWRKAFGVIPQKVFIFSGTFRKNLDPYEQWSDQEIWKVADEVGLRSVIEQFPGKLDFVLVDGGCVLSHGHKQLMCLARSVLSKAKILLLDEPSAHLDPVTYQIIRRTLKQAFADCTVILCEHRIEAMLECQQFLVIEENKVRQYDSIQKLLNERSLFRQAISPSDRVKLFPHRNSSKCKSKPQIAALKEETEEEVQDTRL

CC(C)(C)c1cc(C(C)(C)C)c(NC(=O)c2c[nH]c3ccccc3c2=O)cc1O [Compound 1, N-[2,4-bis(1,1-dimethylethyl)-5-hydroxyphenyl]-1,4-dihydro-4-oxoquinoline-3-carboxamide] showed an EC50 of less than 10 µM.
